Literature values, collected in US8895756B2, “Bendamustine pharmaceutical compositions” (priority 2005, dated 2014).

Conditions: pure tertiary butanol vs pure acetic acid, dimethyl sulfoxide, methylhydroxy, water or TBA/water mixtures; cited from earlier work

CN(CC(N)=O)C(=O)N(CCCl)N=O [SarCNU]
relative stability in solvents: more stable in pure tertiary butanol
